Test results as given in patent US20160201063A1, “EPIGENETIC REGULATORS OF FRATAXIN” (RANA THERAPEUTICS, INC., priority 2013, published 2016).

Columns and labels:
FXN protein [1] = assay: FXN protein western blot in GM03816 and GM04078 cells treated with histone lysine methyltransferase inhibitor; assay type: cell-based, human; conditions: 3 days of HLMi treatment, 5 μM, 2.5 μM, 1.25 μM, vs DMSO
Method: Results from control cells treated with DMSO and without inhibitor treatment are also shown.
Human FRDA diseased cell lines GM03816 and GM04078 were plated at 150000 cells/well. The cells were treated at various concentrations and times with a histone lysine methyltransferase inhibitor dissolved in DMSO. The antibody used for detection of FXM protein was Abcam human FXN antibody (ab48281).

FXN protein [2] = assay: Western blot of FXN protein in gapmer-treated GM03816 lysates; assay type: cell-based, human; conditions: treated vs untreated
Excerpt: Next, a Western blot with the Abcam ab48281 FXN and Abcam ab125267 tubulin antibodies were run using treated and untreated GM03816 lysates.

FXN mRNA = assay: Gapmer screen in differentiated myotubes, FXN mRNA levels; assay type: cell-based; conditions: 4 days after transfection
Excerpt: Subsequently, various oligos targeting ACTL6A, EID1, HIC1, JUND, KAT2A, PRKCD, and YEATS4 were screened in differentiated myotubes for FXN mRNA levels. Measurements were taken 4 days after transfection.

| Compound | FXN protein level (western blot) (FXN protein [1]) | FXN protein level (western blot) (FXN protein [2]) | FXN mRNA level (FXN mRNA) |
| --- | --- | --- | --- |
| COc1cc2nc(N3CCCN(C)CC3)nc(NC3CCN(Cc4ccccc4)CC3)c2cc1OC [HLMi, 2-(Hexahydro-4-methyl-1H-1,4-diazepin-1-yl)-6,7-dimethoxy-N-(1-(phenylmethyl)-4-piperidinyl)-4-quinazolinamine] | FXN human protein upregulation | – | – |
| PRKCD-2: LNA/DNA gapmer to human PRKCD, SEQ ID NO 42, TGCGCATAGACTGTT (LNA modifications, chemistry not fully specified) | – | strong upregulation | upregulation of FXN mRNA |
| ACTL6A-03: LNA/DNA gapmer to human ACTL6A, SEQ ID NO 3, GAACGACCATTAGCA (LNA modifications, chemistry not fully specified) | – | strong upregulation | upregulation of FXN mRNA |
| JUND-1: LNA/DNA gapmer to human JUND, SEQ ID NO 61, CCGTAGAAGGGTGTT (LNA/DNA gapmer, wing pattern not given here) | – | strong upregulation | upregulation of FXN mRNA |
| YEATS4-5: LNA/DNA gapmer to human YEATS4, SEQ ID NO 87, TCGAATTCACCCCAT (LNA modifications, chemistry not fully specified) | – | – | upregulation of FXN mRNA |
| JUND-6: LNA/DNA gapmer to human JUND, SEQ ID NO 66, TGGCTCGTCCTTGAG (LNA modifications, chemistry not fully specified) | – | – | upregulation of FXN mRNA |
